Target: T1, PDE2A (Mus musculus, UniProt Q922S4)
T1 construct: from tissue; host or cells: living female CD-1 mice (brain, in vivo)
T1 sequence (Q922S4 1-939): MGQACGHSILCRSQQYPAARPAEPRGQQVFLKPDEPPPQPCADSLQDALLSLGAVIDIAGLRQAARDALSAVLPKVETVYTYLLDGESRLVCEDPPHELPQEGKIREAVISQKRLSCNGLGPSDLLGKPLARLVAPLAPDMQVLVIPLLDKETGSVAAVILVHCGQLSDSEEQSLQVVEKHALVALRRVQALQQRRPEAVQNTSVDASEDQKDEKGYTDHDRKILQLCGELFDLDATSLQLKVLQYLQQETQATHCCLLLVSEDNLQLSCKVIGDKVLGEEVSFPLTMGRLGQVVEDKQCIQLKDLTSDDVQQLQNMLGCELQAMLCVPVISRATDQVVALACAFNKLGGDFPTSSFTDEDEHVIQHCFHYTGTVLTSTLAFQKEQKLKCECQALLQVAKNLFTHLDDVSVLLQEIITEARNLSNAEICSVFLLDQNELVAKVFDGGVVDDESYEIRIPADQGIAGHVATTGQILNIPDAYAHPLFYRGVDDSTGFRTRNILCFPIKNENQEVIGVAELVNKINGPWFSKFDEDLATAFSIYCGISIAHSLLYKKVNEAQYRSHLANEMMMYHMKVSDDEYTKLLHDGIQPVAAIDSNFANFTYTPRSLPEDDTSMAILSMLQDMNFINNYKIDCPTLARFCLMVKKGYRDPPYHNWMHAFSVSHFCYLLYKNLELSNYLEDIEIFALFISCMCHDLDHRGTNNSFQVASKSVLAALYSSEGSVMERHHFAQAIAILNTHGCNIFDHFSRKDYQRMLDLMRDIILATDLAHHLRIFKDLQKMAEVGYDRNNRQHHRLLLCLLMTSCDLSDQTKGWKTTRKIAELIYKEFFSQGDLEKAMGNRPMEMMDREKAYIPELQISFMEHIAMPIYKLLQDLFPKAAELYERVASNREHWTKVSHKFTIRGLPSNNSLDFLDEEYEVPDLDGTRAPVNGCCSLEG
Experiment: small-animal PET/MR baseline studies in mice
Assay type: in vivo
Conditions: CD-1 mice, i.v. 9.7 ± 1.3 MBq, 0-55 min p.i., n = 4
Method: For PET/MR baseline studies of [^18F]TA3 in anaesthetized CD-1 mice, the radioligand was injected intravenously (9.7 ± 1.3 MBq, SAEOS ~70 GBq/µmol, n = 4), and whole body scans were performed for 60 min in listmode with a Mediso nanoScan PET/MR scanner followed by dynamic reconstruction. Time-activity curves (TACs) were generated for regions of interest such as whole brain, striatum, and cerebellum (Figure 8).
Female CD-1 mice (n = 4; age: 8 weeks; weight: 28.8 ± 1.2 g; supplier: Medizinisch-Experimentelles Zentrum Leipzig, Leipzig, Germany) were housed under a 12 h:12 h light-dark cycle at 26 °C in a vented animal cabinet. The animals received an injection of 9.7 ± 1.3 MBq of [^18F]TA3 into the tail vein followed by a 60 min PET/MR scan (Mediso nanoScan®, Budapest, Hungary). Each PET image was corrected for random coincidences, dead time, scatter and attenuation (AC), based on a whole body (WB) MR scan.
The reconstruction parameters for the list mode data are: 3D-ordered subset expectation maximization (OSEM), 4 iterations, 6 subsets, energy window: 400–600 keV, coincidence mode: 1–5, ring difference: 81. […]
The respective brain regions were identified using the MR information from the GRE scan. The activity data is expressed as mean standardized uptake value (SUV) of the overall ROI.

## COc1ccc2nnc3c(C)nc(-c4cc(OCCC[18F])ccc4F)n3c2n1 [[^18F]TA3]
  time-activity curve in cerebellum: constantly increased uptake in the cerebellum
  time-activity curve in striatum: fast wash out of activity from the striatum
